Data published in patent US9045482B2, “Pyrido[4,3-B]indoles and methods of use” (Medivation Technologies, Inc., priority 2009, dated 2015).

Experiments:
[1] = biological target: T1, human recombinant adrenergic α1D receptor (Homo sapiens, UniProt P25100); test: Adrenergic α1D radioligand binding ([3H]Prozosin)
T1 construct: expressed in transfected cells; host or cells: human embryonic kidney (HEK-293) cells
T1 sequence (P25100 1-572): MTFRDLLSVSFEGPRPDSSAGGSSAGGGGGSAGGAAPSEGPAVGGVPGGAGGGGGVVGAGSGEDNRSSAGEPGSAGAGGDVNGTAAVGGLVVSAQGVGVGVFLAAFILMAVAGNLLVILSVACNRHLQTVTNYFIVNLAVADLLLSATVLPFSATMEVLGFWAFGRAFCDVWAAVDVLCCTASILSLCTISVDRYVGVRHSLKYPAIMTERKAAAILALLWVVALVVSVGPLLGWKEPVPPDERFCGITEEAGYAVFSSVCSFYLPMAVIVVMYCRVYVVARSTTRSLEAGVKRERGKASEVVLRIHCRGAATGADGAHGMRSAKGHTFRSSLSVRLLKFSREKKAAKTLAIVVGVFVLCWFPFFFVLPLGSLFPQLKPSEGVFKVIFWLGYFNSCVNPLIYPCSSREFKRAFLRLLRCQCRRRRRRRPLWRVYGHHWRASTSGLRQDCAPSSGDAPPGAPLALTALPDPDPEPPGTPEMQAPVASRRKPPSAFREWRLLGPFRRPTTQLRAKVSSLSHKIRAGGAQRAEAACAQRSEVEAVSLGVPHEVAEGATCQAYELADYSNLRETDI
Protocol: Compounds of invention were incubated with 0.6 nM [^3H]Prozosin for 60 min at 25° C. Non-specific binding was estimated in the presence of 10 μM phentolamine. Receptor proteins were filtered and washed, the filters were then counted to determine [^3H]Prozosin specifically bound. Compounds were screened at 1 μM or lower, using 1% DMSO as vehicle. Compounds of the invention were tested in this biochemical assay. Biochemical assay results for representative compounds were presented as the percent inhibition of specific binding in Table 3.

[2] = biological target: T2, human recombinant adrenergic α2B receptor (Homo sapiens, UniProt P18089); test: Adrenergic α2B radioligand binding ([3H]Rauwolscine)
T2 construct: expressed in transfected cells; host or cells: Chinese hamster ovary (CHO-K1) cells
T2 sequence (P18089 1-450): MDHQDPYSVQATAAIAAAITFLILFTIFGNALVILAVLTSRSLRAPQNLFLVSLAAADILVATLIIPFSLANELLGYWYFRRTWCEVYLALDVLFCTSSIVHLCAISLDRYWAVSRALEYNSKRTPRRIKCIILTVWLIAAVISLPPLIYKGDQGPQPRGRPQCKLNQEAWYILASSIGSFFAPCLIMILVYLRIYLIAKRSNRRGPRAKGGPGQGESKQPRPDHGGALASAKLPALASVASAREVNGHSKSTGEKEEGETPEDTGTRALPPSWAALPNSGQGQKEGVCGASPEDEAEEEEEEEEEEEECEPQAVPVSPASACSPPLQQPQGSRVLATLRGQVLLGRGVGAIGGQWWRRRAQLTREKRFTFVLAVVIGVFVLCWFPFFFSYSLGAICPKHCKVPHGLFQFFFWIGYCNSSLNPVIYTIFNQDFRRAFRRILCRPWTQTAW
Protocol: To evaluate in radioligand binding assays the activity of compounds of the invention, human recombinant adrenergic α2B receptor expressed in Chinese hamster ovary (CHO-K1) cells [Uhlen, S. et al., Eur. J. Pharmacol. (1998), 343(1):93] in a modified Tris-HCl buffer (50 mM Tris-HCl, pH 7.4, 12.5 mM MgCl2, 1 mM EDTA, 0.2% BSA) was used. Compounds of the invention were incubated with 2.5 nM [^3H]Rauwolscine for 60 min at 25° C. Non-specific binding was estimated in the presence of 10 μM Prozosin. Receptor proteins were filtered and washed, the filters were then counted to determine [^3H]Rauwolscine specifically bound. Compounds were screened at 1 μM or lower, using 1% DMSO as vehicle. Compounds of the invention were tested in this biochemical assay. Biochemical assay results for representative compounds were presented as the percent inhibition of specific binding in Table 3.

[3] = biological target: T3, rat adrenergic α1B receptor (Rattus norvegicus, UniProt P15823); test: Adrenergic α1B radioligand binding ([3H]Prozosin); design: species or system Wistar Rat; settings: 0.1 μM ligand conc.
T3 construct: rat adrenergic α1B receptor obtained from Wistar Rat liver; from tissue; host or cells: Wistar Rat liver
T3 sequence (P15823 1-515): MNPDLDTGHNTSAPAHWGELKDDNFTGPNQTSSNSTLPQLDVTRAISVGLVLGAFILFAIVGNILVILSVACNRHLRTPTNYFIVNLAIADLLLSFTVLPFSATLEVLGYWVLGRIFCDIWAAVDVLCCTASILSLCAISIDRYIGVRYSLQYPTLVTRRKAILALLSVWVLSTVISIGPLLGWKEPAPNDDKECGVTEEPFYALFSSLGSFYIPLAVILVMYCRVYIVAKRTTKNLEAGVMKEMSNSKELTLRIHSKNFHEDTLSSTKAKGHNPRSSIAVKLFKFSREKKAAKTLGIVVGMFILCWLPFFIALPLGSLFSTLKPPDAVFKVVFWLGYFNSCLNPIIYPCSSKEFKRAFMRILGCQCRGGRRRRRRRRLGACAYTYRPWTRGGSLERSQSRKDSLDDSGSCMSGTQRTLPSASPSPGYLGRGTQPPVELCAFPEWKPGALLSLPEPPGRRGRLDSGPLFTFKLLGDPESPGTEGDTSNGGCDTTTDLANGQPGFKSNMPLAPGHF
Protocol: To evaluate in radioligand binding assays the activity of compounds of the invention, rat adrenergic α1B receptor obtained from Wistar Rat liver [Garcia-S'ainz, J. A. et al., Biochem. Biophys. Res. Commun. (1992), 186:760; Michel, A. D. et al., Br. J. Pharmacol. (1989), 98:883] in a modified Tris-HCl buffer (50 mM Tris-HCl buffer, pH 7.4, 0.5 mM EDTA) was used. Compounds of the invention were incubated with 0.25 nM [^3H]Prozosin for 60 min at 25° C. Non-specific binding was estimated in the presence of 10 μM phentolamine. Receptor proteins were filtered and washed, the filters were then counted to determine [^3H]Prozosin specifically bound. Compounds were screened at 1 μM or lower, using 1% DMSO as vehicle. Compounds of the invention were tested in this biochemical assay. Biochemical assay results for representative compounds were presented as the percent inhibition of specific binding in Table 3.

Row | SMILES | Percent Inhibition of ligand binding Adrenergic α1D ([1]; 1 μM ligand conc.) [%] | Percent Inhibition of ligand binding Adrenergic α2B ([2]; 1 μM ligand conc.) [%] | Percent Inhibition of ligand binding Adrenergic α1B [3] [%] | Percent Inhibition of ligand binding Adrenergic α1D ([1]; 0.1 μM ligand conc.) [%] | Percent Inhibition of ligand binding Adrenergic α2B ([2]; 0.1 μM ligand conc.) [%]
1 | Fc1ccc(CCn2c3c(c4cc(Cl)ccc42)C2CCCN2CC3)cc1 (stereo not shown) [Compound 1, 7-(4-fluorophenethyl)-10-chloro-2,3,5,6,7,11c-hexahydro-1H-indolizino[7,8-b]indole] | 15 | 55 | – | – | –
2 | O=C(Cn1c2c(c3cccnc31)C1CCCN1CC2)N1CCCCC1 (stereo not shown) [Compound 38, 1-(piperidin-1-yl)-2-(2,3,5,6-tetrahydro-1H-pyrido[3′,2′:4,5]pyrrolo[2,3-g]indolizin-7(11cH)-yl)ethanone] | – | – | 8 | 4 | 30
3 | O=C(Cn1c2c(c3cccnc31)CN1CCCC1C2)N1CCCCC1 (stereo not shown) [Compound 37, 1-(piperidin-1-yl)-2-(8,9,9a,10-tetrahydro-5H-pyrido[3′,2′:4,5]pyrrolo[3,2-f]indolizin-11(7H)-yl)ethanone] | – | – | 9 | 6 | 40
4 | Fc1ccc(CCn2c3c(c4cc(Cl)ccc42)CN2CCCC2C3)cc1 (stereo not shown) [Compound 2, 10-(4-fluorophenethyl)-7-chloro-2,3,5,10,11,11a-hexahydro-1H-indolizino[7,6-b]indole] | 23 | 51 | – | – | –
